Assay results from patent US7053175B1, “Synthetic peptides useful in biological assays for detecting infections caused by group O HIV-1 viruses” (Bio-Rad Pasteur, priority 1997, dated 2006).
No end group written: not given here.

Experiments:
[1] = test system: serum samples from patients infected with group O HIV-1 retroviruses; assay: Immunoenzymatic test: Test No. 2 (immunoreactivity with diluted sera); format: binding, human; details: solid phase peptide 2 μg/ml; for Number of samples: sera of Table V; for ABSORBANCE (OD): cyclized
Excerpt: The serum samples from patients infected with group O HIV-1 retroviruses were obtained by the Yaounde Pasteur Centre in Cameroon and were serotyped group O according to the serological algorithm described in AIDS (1977), 11, pp. 445-453. A genotyped sample (Maryland) is obtained from the United States. These samples were previously diluted in negative human serum at the dilutions given in Table V, in order to have a sufficient volume for the different immunoreactivity tests.
The synthetic peptides used were dissolved in water at a concentration of 1 mg/ml (stock solution). For the solid phase sensitization step (“coating”), the procedure was carried out as described for Example 2.
The serum samples were diluted 1/5 with a skimmed milk solution (citrate buffer supplemented with 0.01% of phenol red, 0.25% of chloroform and 0.25% of Kathon®), deposited in the wells of plates and incubated for 30 min at 40° C.
After washing with a Tris-NaCl buffer solution pH 7.4 containing 0.1% of Tween® 20 and 0.001% of sodium merthiolate, 100 μl of a solution of conjugate consisting of horseradish peroxidase-labelled anti-human IgG and IgM goat antibodies, containing as preservative 0.01% of sodium merthiolate, in solution in a citrate buffer solution supplemented with 30% glycerol and 25% normal foetal calf serum, were added to each well of the plates and then they were incubated for 30 min at 40° C.
After washing with a Tris-NaCl buffer solution pH 7.4 containing 0.1% of Tween® 20 and 0.001% of sodium merthiolate, the colour was developed as described in Example 2.
The relative absorbance (OD) (A490-A620) read in each well is proportional to the immunoreactivity of each peptide. It indicates the ability of each peptide to react with the biological sample with which the test is carried out.
The reactivity of the peptides of the invention, peptides No. 10 (14B), No. 11 (18B), No. 12 (19B), No. 14 (21B), No. 15 (22B), No. 16 (23B) all in cyclized form, was compared with that of three homologous synthetic peptides having, as sequence, a portion of the natural sequence of the envelope (env) of a group O HIV-1 retrovirus. These peptides are two peptides derived from the VAU isolate—the peptide VAU 22 AA and the peptide VAU 35 AA—and the peptide MVP 5180 (designated “MVP 5180” in Table V). The peptides VAU 22 AA and VAU 35 AA (whose structure is indicated in Example 2) and the peptide MVP 5180 comprise an immunodominant epitope of gp41.
All these peptides were used in cyclized form. The sequence of the MVP 5180 peptide is the following:
For each peptide tested, the samples were arranged into four classes (a, b, c and d) corresponding to various levels of relative absorbance read at the wavelengths A492-A620: • for a: OD<0.100, • for b: 0.100<OD<0.500, • for c: 0.500<OD<1.000, • for d: OD>1.000, thus making it possible to evaluate the degree of immunoreactivity of the peptides.

[2] = test system: sera from patients infected with group O HIV-1 retroviruses; assay: Immunoenzymatic test of compositions containing peptides (Example 4); format: binding, human; set-up: key: >: signal greater than the reading capacity of the spectrophotometer; details: single peptide 2 μg/ml or composition 1 μg/ml + 1 μg/ml
Protocol: For this test, the procedure was carried out according to the protocol described in Example 2 and the same sera were used. The microplates used were sensitized either with peptide No. 1 (2B) cyclized, or with peptide No. 3 (4B) cyclized, or with a composition containing these two peptides (1:1 w/w). Into each well, there were deposited either 100 μl of a solution containing 2 μg/ml of peptide No. 1 (2B), or 100 μl of a solution containing 2 μg/ml of peptide No. 3 (4B), or 100 μl of a solution containing 1 μg/ml of peptide No. 1 (2B) and 1 μg/ml of peptide No. 3 (4B).

Sequence “RLLALETFIEENELLNLWGCKNRAICYTSVKWNKT (cysteine pairing not given here) [VAU 35 AA, reference compound]” has a Number of samples ([1]; CLASS A (a: OD<0.100)) of 11, a Number of samples ([1]; CLASS B (b: 0.100<OD<0.500)) of 3 and a Number of samples ([1]; CLASS C (c: 0.500<OD<1.000)) of 0. The Number of samples ([1]; CLASS D (d: OD>1.000)) was 0, the “ABSORBANCE (OD)” value ([1]; serum 258 OUDI at 1/100) was 0.058 and the “ABSORBANCE (OD)” value ([1]; serum 625 at 1/50) was 0.069. The “ABSORBANCE (OD)” value ([1]; serum 3600 at 1/100) was 0.025, the “ABSORBANCE (OD)” value ([1]; serum 3613 at ¼00) was 0.250 and the “ABSORBANCE (OD)” value ([1]; serum 3653 at 1/10) was 0.021. The “ABSORBANCE (OD)” value ([1]; serum 4280 at 1/50) was 0.013, the “ABSORBANCE (OD)” value ([1]; serum 6111 at 1/100) was 0.087 and the “ABSORBANCE (OD)” value ([1]; serum DJOU at 1/100) was 0.022. The “ABSORBANCE (OD)” value ([1]; serum DO15 at 1/100) was 0.036, the “ABSORBANCE (OD)” value ([1]; serum MBASSI at 1/100) was 0.120 and the “ABSORBANCE (OD)” value ([1]; serum Maryland at ¼00) was 0.054. The “ABSORBANCE (OD)” value ([1]; serum NGO at 1/50) was 0.055, the “ABSORBANCE (OD)” value ([1]; serum NJEM at 1/100) was 0.159 and the “ABSORBANCE (OD)” value ([1]; serum WANG at 1/50) was 0.025.
In the case of “LLSLWGCRGKAVCYTSVQWNET [PEPTIDE No. 1 (2B)]”, the ABSORBANCE ([2]; serum 1062) is reported as “>”, the ABSORBANCE ([2]; serum 1702) is reported as 1.016 and the ABSORBANCE ([2]; serum 1754) is reported as “>”. The ABSORBANCE ([2]; serum 2294) was 0.447, the ABSORBANCE ([2]; serum 2352) was 0.205 and the ABSORBANCE ([2]; serum 2551) was “>”. For the same sequence, the ABSORBANCE ([2]; serum 2700) was “>”, the ABSORBANCE ([2]; serum 3016) was 0.243 and the ABSORBANCE ([2]; serum 3136 (listed twice)) was 0.302. For the same sequence, the ABSORBANCE ([2]; serum 3235) was “>”, the ABSORBANCE ([2]; serum 3302) was 0.386 and the ABSORBANCE ([2]; serum 3482) was 1.473. It also gave an ABSORBANCE ([2]; serum 3600) of 2.743, an ABSORBANCE ([2]; serum 3627) of 2.910 and an ABSORBANCE ([2]; serum 3771) of 0.544. The ABSORBANCE ([2]; serum 3891) was 2.780, the ABSORBANCE ([2]; serum 3935) was 0.307 and the ABSORBANCE ([2]; serum 4477*) was “>”. For the same sequence, the ABSORBANCE ([2]; serum 4489) was “>”, the ABSORBANCE ([2]; serum 5149) was “>” and the ABSORBANCE ([2]; serum 5270) was “>”. The ABSORBANCE ([2]; serum 5931) was “>”, the ABSORBANCE ([2]; serum 6165) was 2.714 and the ABSORBANCE ([2]; serum 6198) was “>”. For the same sequence, the ABSORBANCE ([2]; serum 6627) was “>”, the ABSORBANCE ([2]; serum 6697) was “>” and the ABSORBANCE ([2]; serum 6891) was 0.062. The ABSORBANCE ([2]; serum 6976) was “>”, the ABSORBANCE ([2]; serum 6998) was “>” and the ABSORBANCE ([2]; serum 7258) was 2.477. For the same sequence, the ABSORBANCE ([2]; serum 7443) was “>”.
In the case of “LLSSWGCKGRLVCYTSVQWNET [PEPTIDE No. 3 (4B)]”, the ABSORBANCE ([2]; serum 1062) is reported as “>”, the ABSORBANCE ([2]; serum 1702) is reported as “>” and the ABSORBANCE ([2]; serum 1754) is reported as “>”. The ABSORBANCE ([2]; serum 2294) was “>”, the ABSORBANCE ([2]; serum 2352) was “>” and the ABSORBANCE ([2]; serum 2551) was “>”. For the same sequence, the ABSORBANCE ([2]; serum 2700) was “>”, the ABSORBANCE ([2]; serum 3016) was “>” and the ABSORBANCE ([2]; serum 3136 (listed twice)) was “>”. The ABSORBANCE ([2]; serum 3235) was “>”, the ABSORBANCE ([2]; serum 3302) was “>” and the ABSORBANCE ([2]; serum 3482) was “>”. The ABSORBANCE ([2]; serum 3600) was “>”, the ABSORBANCE ([2]; serum 3627) was “>” and the ABSORBANCE ([2]; serum 3771) was “>”. The ABSORBANCE ([2]; serum 3891) was “>”, the ABSORBANCE ([2]; serum 3935) was “>” and the ABSORBANCE ([2]; serum 4477*) was “>”. For the same sequence, the ABSORBANCE ([2]; serum 4489) was “>”, the ABSORBANCE ([2]; serum 5149) was “>” and the ABSORBANCE ([2]; serum 5270) was “>”. The ABSORBANCE ([2]; serum 5931) was “>”, the ABSORBANCE ([2]; serum 6165) was “>” and the ABSORBANCE ([2]; serum 6198) was “>”. For the same sequence, the ABSORBANCE ([2]; serum 6627) was “>”, the ABSORBANCE ([2]; serum 6697) was “>” and the ABSORBANCE ([2]; serum 6891) was “>”. For the same sequence, the ABSORBANCE ([2]; serum 6976) was “>”, the ABSORBANCE ([2]; serum 6998) was “>” and the ABSORBANCE ([2]; serum 7258) was “>”. For the same sequence, the ABSORBANCE ([2]; serum 7443) was “>”.
In the case of “LLNLWGCKNRAICYTSVKWNKT (cysteine pairing not given here) [VAU 22 AA, reference compound]”, the Number of samples ([1]; CLASS A (a: OD<0.100)) is reported as 7, the Number of samples ([1]; CLASS B (b: 0.100<OD<0.500)) is reported as 7 and the Number of samples ([1]; CLASS C (c: 0.500<OD<1.000)) is reported as 0. For the same sequence, the Number of samples ([1]; CLASS D (d: OD>1.000)) was 0, the “ABSORBANCE (OD)” value ([1]; serum 258 OUDI at 1/100) was 0.100 and the “ABSORBANCE (OD)” value ([1]; serum 625 at 1/50) was 0.165. The “ABSORBANCE (OD)” value ([1]; serum 3600 at 1/100) was 0.058, the “ABSORBANCE (OD)” value ([1]; serum 3613 at ¼00) was 0.396 and the “ABSORBANCE (OD)” value ([1]; serum 3653 at 1/10) was 0.310. For the same sequence, the “ABSORBANCE (OD)” value ([1]; serum 4280 at 1/50) was 0.021, the “ABSORBANCE (OD)” value ([1]; serum 6111 at 1/100) was 0.180 and the “ABSORBANCE (OD)” value ([1]; serum DJOU at 1/100) was 0.042. For the same sequence, the “ABSORBANCE (OD)” value ([1]; serum DO15 at 1/100) was 0.075, the “ABSORBANCE (OD)” value ([1]; serum MBASSI at 1/100) was 0.257 and the “ABSORBANCE (OD)” value ([1]; serum Maryland at ¼00) was 0.168. The “ABSORBANCE (OD)” value ([1]; serum NGO at 1/50) was 0.040, the “ABSORBANCE (OD)” value ([1]; serum NJEM at 1/100) was 0.024 and the “ABSORBANCE (OD)” value ([1]; serum WANG at 1/50) was 0.041.
